Data taken from PubChem BioAssay AID652222 (The Scripps Research Institute Molecular Screening Center, 2013).

Target: Serine/threonine-protein phosphatase PP1-alpha catalytic subunit (Homo sapiens) (UniProt P62136)
Assay: PP1 inhibitor potency with OMFP substrate, dose response, biochemical, fluorescence, set 1 (AID 652222)
Settings: purified PP1alpha, OMFP dephosphorylation;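 active means compounds whose fitted IC50 against PP1 is below 10 micromolar; inactive means IC50 of 10 micromolar or weaker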

Chain of Serine/threonine-protein phosphatase PP1-alpha catalytic subunit (Homo sapiens) (P62136 whole entry, looked up): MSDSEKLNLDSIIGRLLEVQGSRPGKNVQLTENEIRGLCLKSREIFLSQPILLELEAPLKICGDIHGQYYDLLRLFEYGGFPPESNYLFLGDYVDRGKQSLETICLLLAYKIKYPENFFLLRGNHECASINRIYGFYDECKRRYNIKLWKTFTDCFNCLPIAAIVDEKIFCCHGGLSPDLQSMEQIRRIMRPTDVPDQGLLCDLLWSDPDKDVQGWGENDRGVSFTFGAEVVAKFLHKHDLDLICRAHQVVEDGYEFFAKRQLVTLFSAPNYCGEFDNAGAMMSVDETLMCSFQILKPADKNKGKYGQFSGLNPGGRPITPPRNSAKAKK

IC50, active:
Cc1cccnc1C(c1ccc2cccnc2c1O)N1CCN(C)CC1 (stereo not drawn) 1480 nM, Oc1c(C(NC2CCCCC2)c2ccccn2)ccc2cccnc12 (stereo not drawn) 1360 nM, CC1CCN(C(c2ccccn2)c2cc(Cl)c3cccnc3c2O)CC1 (stereo not drawn) 1450 nM, CC(C)(C)OC(=O)N1CCN(C(c2ccccn2)c2cc(Cl)c3cccnc3c2O)CC1 (stereo not drawn) 1370 nM, CN1CCN(C(c2ccc(C(F)(F)F)cn2)c2ccc3cccnc3c2O)CC1 (stereo not drawn) 836 nM, CN1CCC(NC(c2ccccn2)c2ccc3cccnc3c2O)CC1 (stereo not drawn) 2500 nM, Oc1c(C(c2ccccn2)N2CCN(c3ccccc3F)CC2)cc(Cl)c2cccnc12 (stereo not drawn) 2410 nM, Oc1c(C(c2ccccn2)N2CCCC2)ccc2cccnc12 (stereo not drawn) 1410 nM, CN1CCN(C(c2ncccn2)c2ccc3cccnc3c2O)CC1 (stereo not drawn) 2690 nM, CN1CCN(C(c2ccc3cccnc3c2O)c2ncccc2C(F)(F)F)CC1 (stereo not drawn) 1120 nM, Cc1ccc(C(c2ccc3cccnc3c2O)N2CCN(C)CC2)nc1 (stereo not drawn) 1340 nM, COc1ccnc(C(c2ccc3cccnc3c2O)N2CCN(C)CC2)c1 (stereo not drawn) 1260 nM, Cc1cccc(C(c2ccc3cccnc3c2O)N2CCN(C)CC2)n1 (stereo not drawn) 2520 nM, COc1ccc(C(c2ccc3cccnc3c2O)N2CCN(C)CC2)nc1 (stereo not drawn) 1690 nM, Cc1ccc2ccc(C(c3ccccn3)N3CCN(C)CC3)c(O)c2n1 (stereo not drawn) 1440 nM, COc1cccc(C(c2ccc3cccnc3c2O)N2CCN(C)CC2)n1 (stereo not drawn) 8870 nM, Oc1c(C(c2ccccn2)N2CCC(Cc3ccccc3)CC2)cc(Cl)c2cccnc12 (stereo not drawn) 1230 nM, Cc1ccnc(C(c2ccc3cccnc3c2O)N2CCN(C)CC2)c1 (stereo not drawn) 1800 nM
